Data taken from patent US20240270741A1 (Cogent Biosciences, Inc., priority 2023, published 2024).

The molecules below were run against FGFR2 (Homo sapiens, UniProt P21802) (assay: FGFR wild type enzyme assay (HTRF KinEASE-TK), FGFR2). Details: Enz FGFR2 (nM), FGFR2 wild type enzyme.
Chain of FGFR2 (P21802 399-821 limits assumed): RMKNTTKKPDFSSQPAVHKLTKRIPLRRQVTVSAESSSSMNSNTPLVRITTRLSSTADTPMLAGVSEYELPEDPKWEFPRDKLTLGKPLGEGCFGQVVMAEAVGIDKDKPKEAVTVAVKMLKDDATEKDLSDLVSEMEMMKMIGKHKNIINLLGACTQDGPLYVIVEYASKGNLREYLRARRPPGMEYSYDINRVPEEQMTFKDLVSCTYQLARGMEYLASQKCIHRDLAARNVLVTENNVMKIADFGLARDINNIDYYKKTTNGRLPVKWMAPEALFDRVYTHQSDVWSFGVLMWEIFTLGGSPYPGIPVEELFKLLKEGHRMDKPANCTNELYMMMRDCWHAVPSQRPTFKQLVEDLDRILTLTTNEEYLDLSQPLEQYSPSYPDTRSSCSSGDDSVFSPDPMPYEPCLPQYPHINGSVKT
Procedure: Activity against FGFR wild type and mutant enzymes were determined in biochemical assays using purified intracellular domains of the respective isoforms using HTRF KinEASE-TK assay technology from CisBio, now PerkinElmer. (Catalogue number 62TK0PEC). Briefly test compounds were tested in 11 point 1:3 serial dilutions, typical final concentration ranges from 10,000 nM to 0.17 nM. Test compounds were dissolved in DMSO and added to assay plates using acoustic transfer. Enzyme was pre-incubated with test compound for 30 minutes and the assay was initiated by addition of ATP and TK-peptide substrate. After 60 minutes at room temperature the reaction was quenched with detection reagent and incubated for an additional 60 minutes at room temperature. The plates were read using a multimode reader and the emission ratio of 665 nm to 615 nm was determined. This ratio was converted to percent of control (POC). [1-(high control-sample signal)/(high control-low control)]*100. Wells without compound were used to determine high control values and wells without enzyme were used to determine low control values. The POC values were fit using a four-parameter logistic model and the value where the fit curve was equal to 50 POC was reported as the IC50 using the Signals Vitro Vivo software package (PerkinElmer). Final assay conditions were: 50 mM HEPES pH7.5, 10 mM MgCl2, 1 mM EDTA, 0.01% Brij-35, 2 mM MnCl2, 1 mM DTT, and 0.5 uM TK-peptide.

Compound | IC50 [nM]
N#Cc1cnn2cc(-c3cnn4c3CNCC4)cc(Sc3ncccc3F)c12 [Example 183, 4-((3-fluoropyridin-2-yl)thio)-6-(4,5,6,7-tetrahydropyrazolo[1,5-a]pyrazin-3-yl)pyrazolo[1,5-a]pyridine-3-carbonitrile] | 8
Cc1c(-c2cc(Sc3ncccc3F)c3c(C#N)cnn3c2)cnn1[C@H]1CC[C@@H](O)CC1 [Example 184, 4-((3-fluoropyridin-2-yl)thio)-6-(1-((1s,4s)-4-hydroxycyclohexyl)-5-methyl-1H-pyrazol-4-yl)pyrazolo[1,5-a]pyridine-3-carbonitrile] | 1.6
Cc1c(-c2cc(Sc3ncccc3F)c3c(C#N)cnn3c2)cnn1[C@H]1CC[C@H](O)CC1 [Example 185, 4-((3-fluoropyridin-2-yl)thio)-6-(1-((1r,4r)-4-hydroxycyclohexyl)-5-methyl-1H-pyrazol-4-yl)pyrazolo[1,5-a]pyridine-3-carbonitrile] | 1
Cc1c(-c2cc(Sc3ncccc3F)c3c(C#N)cnn3c2)cnn1[C@H]1CC[C@@H](N)CC1 [Example 186, 6-(1-((1s,4s)-4-aminocyclohexyl)-5-methyl-1H-pyrazol-4-yl)-4-((3-fluoropyridin-2-yl)thio)pyrazolo[1,5-a]pyridine-3-carbonitrile] | 3
Cc1c(-c2cc(Sc3ncccc3F)c3c(C#N)cnn3c2)cnn1[C@H]1CC[C@H](N)CC1 [Example 187, 6-(1-((1r,4r)-4-aminocyclohexyl)-5-methyl-1H-pyrazol-4-yl)-4-((3-fluoropyridin-2-yl)thio)pyrazolo[1,5-a]pyridine-3-carbonitrile] | 1
Cc1c(-c2cc(Sc3ccccc3C#N)c3c(C#N)cnn3c2)cnn1[C@H]1CC[C@@H](O)CC1 [Example 188, 4-((2-cyanophenyl)thio)-6-(1-((1s,4s)-4-hydroxycyclohexyl)-5-methyl-1H-pyrazol-4-yl)pyrazolo[1,5-a]pyridine-3-carbonitrile] | 0.5
Cc1c(-c2cc(Sc3ccccc3C#N)c3c(C#N)cnn3c2)cnn1[C@H]1CC[C@H](O)CC1 [Example 189, 4-((2-cyanophenyl)thio)-6-(1-((1r,4r)-4-hydroxycyclohexyl)-5-methyl-1H-pyrazol-4-yl)pyrazolo[1,5-a]pyridine-3-carbonitrile] | 0.7
CC(=O)N1CCC[C@H](n2ncc(-c3cc(Sc4ncc(F)cc4F)c4c(C#N)cnn4c3)c2C)C1 [Example 190, (S)-6-(1-(1-acetylpiperidin-3-yl)-5-methyl-1H-pyrazol-4-yl)-4-((3,5-difluoropyridin-2-yl)thio)pyrazolo[1,5-a]pyridine-3-carbonitrile] | 3
Cc1c(-c2cc(Sc3ncc(F)cc3F)c3c(C#N)cnn3c2)cnn1C1CCN(C(=O)CO)CC1 [Example 191, 4-((3,5-difluoropyridin-2-yl)thio)-6-(1-(1-(2-hydroxyacetyl)piperidin-4-yl)-5-methyl-1H-pyrazol-4-yl)pyrazolo[1,5-a]pyridine-3-carbonitrile] | 4
N#Cc1cnn2cc(-c3cnn([C@@H]4CCCNC4)c3)cc(Sc3ncccc3F)c12 [Example 192, (R)-4-((3-fluoropyridin-2-yl)thio)-6-(1-(piperidin-3-yl)-1H-pyrazol-4-yl)pyrazolo[1,5-a]pyridine-3-carbonitrile] | 2
Cc1c(-c2cc(Sc3ncccc3F)c3c(C#N)cnn3c2)cnn1C1CCN(C(=O)[C@@H](C)O)CC1 [Example 193, (R)-4-((3-fluoropyridin-2-yl)thio)-6-(1-(1-(2-hydroxypropanoyl)piperidin-4-yl)-5-methyl-1H-pyrazol-4-yl)pyrazolo[1,5-a]pyridine-3-carbonitrile] | 2
Cc1c(-c2cc(Sc3ncccc3F)c3c(C#N)cnn3c2)cnn1C1CCN(C(=O)[C@H](C)O)CC1 [Example 194, (S)-4-((3-fluoropyridin-2-yl)thio)-6-(1-(1-(2-hydroxypropanoyl)piperidin-4-yl)-5-methyl-1H-pyrazol-4-yl)pyrazolo[1,5-a]pyridine-3-carbonitirle] | 2
